For 1 substance, cationite capacities results are on record in patent US7879996B2, “Water soluble compounds” (priority 2007, dated 2011).

A short description of this data set: cationite (cation-exchanging) capacity. The format is physicochemical.

On to “2-([60] fullerene [1′,9′:3,4] cyclohexen-1-y1)-5,10,15,20-(tetra magnesium [(4-(N-(4-carboxy butyl) amino) phenyl 2,3-dicarboxylatel]) porphyrin iron (II) [PMC16]”, for which the cationite capacities was 320-370 meqv/mmol.
